Assay results as given in article PMC10886839, “Electrochemical DNA Cleavage Sensing for EcoRV Activity and Inhibition with an ERGO Electrode” (Biosensors, 2024).

Molecular target: T1, EcoRV (Escherichia coli, UniProt P04390)
T1 construct: gene ecoRVR; restriction endonuclease, dosed in U/mL; homodimer (known biology)
T1 sequence (P04390 2-245): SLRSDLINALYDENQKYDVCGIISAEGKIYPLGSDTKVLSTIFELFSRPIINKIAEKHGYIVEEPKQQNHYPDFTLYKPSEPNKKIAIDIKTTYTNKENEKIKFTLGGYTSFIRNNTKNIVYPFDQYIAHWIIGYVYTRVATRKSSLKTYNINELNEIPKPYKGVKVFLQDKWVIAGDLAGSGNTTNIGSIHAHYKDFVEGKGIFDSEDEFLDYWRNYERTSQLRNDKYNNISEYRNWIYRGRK
Assay: electrochemical DNA cleavage assay (DPV of methylene blue-labelled DNA on ERGO electrode)
Assay type: biochemical

- IC50: 96 nM
Structure (SMILES): O=C(O)C1=CC(=C(c2ccc(O)c(C(=O)O)c2)c2ccc(O)c(C(=O)O)c2)C=CC1=O [ATA, aurintricarboxylic acid]
